Data on 45 molecules can be found in patent US11918571B2, “Compounds and their methods of use” (Praxis Precision Medicines, Inc., priority 2017, dated 2024).

A value given as a limit tells only on which side of the number the result lay.

The target of the test is T1, human Nav1.6 (hNav1.6) (Homo sapiens, UniProt Q9UQD0).
T1 construct: expressed in transfected cells; host or cells: HEK-293 (G418 selection)
T1 sequence (Q9UQD0 whole entry): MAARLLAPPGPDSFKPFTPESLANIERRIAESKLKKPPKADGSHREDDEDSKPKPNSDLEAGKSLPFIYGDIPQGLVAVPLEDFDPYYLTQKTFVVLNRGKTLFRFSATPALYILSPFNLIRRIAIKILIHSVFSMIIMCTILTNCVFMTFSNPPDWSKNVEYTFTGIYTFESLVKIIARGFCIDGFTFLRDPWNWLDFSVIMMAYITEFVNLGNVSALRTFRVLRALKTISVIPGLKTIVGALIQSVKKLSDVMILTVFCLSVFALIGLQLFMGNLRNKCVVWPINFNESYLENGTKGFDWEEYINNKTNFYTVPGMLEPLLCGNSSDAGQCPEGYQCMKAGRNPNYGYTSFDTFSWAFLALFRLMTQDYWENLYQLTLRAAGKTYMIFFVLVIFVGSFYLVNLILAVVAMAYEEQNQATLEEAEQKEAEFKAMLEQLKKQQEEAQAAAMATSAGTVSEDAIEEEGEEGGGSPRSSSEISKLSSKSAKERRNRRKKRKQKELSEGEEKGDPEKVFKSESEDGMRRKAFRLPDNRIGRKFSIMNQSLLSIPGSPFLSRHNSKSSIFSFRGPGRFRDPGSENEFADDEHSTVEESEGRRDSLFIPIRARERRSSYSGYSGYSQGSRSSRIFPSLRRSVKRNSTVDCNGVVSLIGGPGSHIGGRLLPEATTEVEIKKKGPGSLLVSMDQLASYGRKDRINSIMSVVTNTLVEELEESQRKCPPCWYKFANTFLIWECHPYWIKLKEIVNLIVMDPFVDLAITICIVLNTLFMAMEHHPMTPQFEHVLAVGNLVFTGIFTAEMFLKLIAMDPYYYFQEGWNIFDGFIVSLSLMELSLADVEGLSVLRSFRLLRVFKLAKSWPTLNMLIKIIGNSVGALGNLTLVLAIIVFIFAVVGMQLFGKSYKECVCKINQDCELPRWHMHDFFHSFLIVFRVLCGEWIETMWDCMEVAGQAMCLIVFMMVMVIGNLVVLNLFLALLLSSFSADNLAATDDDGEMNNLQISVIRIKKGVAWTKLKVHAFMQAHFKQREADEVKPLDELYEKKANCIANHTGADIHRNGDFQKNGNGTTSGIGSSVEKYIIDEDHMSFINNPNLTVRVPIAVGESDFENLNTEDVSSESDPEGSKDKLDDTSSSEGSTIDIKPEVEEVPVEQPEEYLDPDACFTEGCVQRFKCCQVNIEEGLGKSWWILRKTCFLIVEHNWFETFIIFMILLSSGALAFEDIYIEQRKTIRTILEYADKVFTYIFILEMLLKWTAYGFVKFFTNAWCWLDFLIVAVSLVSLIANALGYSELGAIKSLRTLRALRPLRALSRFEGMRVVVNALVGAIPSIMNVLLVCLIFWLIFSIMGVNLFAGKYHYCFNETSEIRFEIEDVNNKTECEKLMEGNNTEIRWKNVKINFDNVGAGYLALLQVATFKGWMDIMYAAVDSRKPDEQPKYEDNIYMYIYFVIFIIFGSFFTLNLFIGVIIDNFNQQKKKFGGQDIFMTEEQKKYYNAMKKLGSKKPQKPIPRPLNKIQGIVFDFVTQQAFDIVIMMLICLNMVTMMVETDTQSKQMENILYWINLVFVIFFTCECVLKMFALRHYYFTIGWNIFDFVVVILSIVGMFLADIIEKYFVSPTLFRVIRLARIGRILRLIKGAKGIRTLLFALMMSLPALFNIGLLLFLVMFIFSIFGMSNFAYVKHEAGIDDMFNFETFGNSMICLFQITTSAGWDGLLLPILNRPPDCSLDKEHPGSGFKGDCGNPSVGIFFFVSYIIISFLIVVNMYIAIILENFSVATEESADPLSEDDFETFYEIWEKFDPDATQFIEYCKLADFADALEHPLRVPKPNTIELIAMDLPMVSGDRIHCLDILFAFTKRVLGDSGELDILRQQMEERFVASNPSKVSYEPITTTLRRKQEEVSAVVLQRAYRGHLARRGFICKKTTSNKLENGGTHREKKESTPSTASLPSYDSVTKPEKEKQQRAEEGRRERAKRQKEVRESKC
Briefly: Modulation of late sodium current (INaL), PatchXpress electrophysiology, ATX-II evoked. The class given is cell-based. The settings on record: HEK293; 1 μM compound; HEK-293 cells expressing recombinant human Nav1.6; late current evoked by 300 nM ATX-II; read-out: INaL v1.6 (1 μM, % Inhibition). As for the experimental part:
Functional characterization of exemplary compounds to modulate INaL expressed by the Nav1.6 voltage-gated sodium channel was accomplished using the PatchXpress™ high throughput electrophysiology platform (Molecular Devices, Sunnyvale, CA). HEK-293 cells expressing recombinant, human Nav1.6 (hNav1.6) were grown in DMEM/high-glucose Dulbecco's modified, 10% FBS, 2 mM sodium pyruvate, 10 mM HEPES and 400 μg/mL G418. Cells were grown to 50%-80% confluency prior to harvesting. Trypsinized cells were washed, allowed to recover for 1 hour and then resuspended in extracellular recording solution at a concentration of 1×10^6 cells/ml. The onboard liquid handling facility of the PatchXpress was used for dispensing cells and applying test compounds. Nay late currents were evoked by the application of 300 nM ATX-II. INaL was evoked by depolarizing pulses to 0 mV for 200 ms from a non-inactivating holding potential (e.g., −120 mV) at a frequency of 0.1 Hz. INaL amplitude and stability were determined by analyzing the mean current amplitude over the final 20 ms of the test pulse. Following steady state block with exemplary compounds (e.g., as described herein), a Na^+ free solution containing an impermeant cation (e.g., Choline or NDMG) was added to confirm the identify of the sodium current.
Results from this assay relating to percent inhibition of INaL at hNaV1.6 (measured using a procedure similar to described above but using HEK-293 cells expressing recombinant, human Nay 1.6 (h Nay 1.6) at 1 μM are summarized in Table 1 below. In this table, “A” indicates inhibition of less than 30%; “B” indicates inhibition of between about 30% to about 70%; and “C” indicates inhibition of greater than 70%.
As for `Cc1cc(OC(F)(F)F)ccc1-c1cc(C)n2nncc2c1` [Compound 5], the inhibition at 1 µM was more than 70%.

With `COc1cc(OC(F)(F)F)ccc1-c1ccn2nnc(C)c2c1` [Compound 43], the inhibition at 1 µM was more than 70%.

Turning to `Cc1nnn2ccc(-c3cnc(OCC(F)(F)F)c(F)c3)cc12` [Compound 8], the inhibition at 1 µM is 30 to 70%.

On to `FC(F)(F)Oc1ccc(-c2ccn3nncc3c2)cc1` [Compound 9], for which the inhibition at 1 µM is more than 70%.

Turning to `Cc1nnn2ccc(-c3ccc(OC(F)(F)F)cc3)cc12` [Compound 7], the inhibition at 1 µM was more than 70%.

Turning to `COCc1nnn2ccc(-c3cnc(OC4(C(F)(F)F)CCC4)c(F)c3)cc12` [Compound 29], the inhibition at 1 µM was more than 70%.

In the case of `C[C@@H](Oc1ncc(-c2ccn3nnc(C(F)F)c3c2)cc1F)C(F)(F)F` [Compound 37], the inhibition at 1 µM was more than 70%.

Turning to `Cc1nnn2ccc(-c3cnc(O[C@H](C)C(F)(F)F)c(F)c3)cc12` [Compound 21], the inhibition at 1 µM was more than 70%.

As to `CC(C)(Oc1ncc(-c2ccn3nnc(C(F)F)c3c2)cc1F)C(F)(F)F` [Compound 39], the inhibition at 1 µM was more than 70%.

With `Cc1cc(-c2cnc(O[C@H](C)C(F)(F)F)c(F)c2)cc2cnnn12` [Compound 44], the inhibition at 1 µM fell in the range of 30 to 70%.

With `C[C@H](Oc1ncc(-c2ccn3nnc(C(F)F)c3c2)cc1F)C(F)(F)F` [Compound 38], the inhibition at 1 µM was more than 70%.

For `COCc1nnn2ccc(-c3cnc(O[C@@H](C)C(F)(F)F)c(F)c3)cc12` [Compound 27], the inhibition at 1 µM was more than 70%.

On to `FC(F)Oc1ccc(-c2ccn3nncc3c2)cc1` [Compound 14], for which the inhibition at 1 µM is 30 to 70%.

For `[2H]C([2H])([2H])OCc1nnn2ccc(-c3cnc(OC(C)(C)C(F)(F)F)c(F)c3)cc12` [Compound 40], the inhibition at 1 µM was more than 70%.

With `COCc1cc(OC(F)(F)F)ccc1-c1ccn2nncc2c1` [Compound 2], the inhibition at 1 µM was more than 70%.

In the case of `Cc1nnn2ccc(-c3cnc(O[C@@H](C)C(F)(F)F)c(F)c3)cc12` [Compound 22], the inhibition at 1 µM was more than 70%.

Regarding `C[C@H](Oc1ncc(-c2ccn3nncc3c2)cc1F)C(F)(F)F` [Compound 18, 5-[5-fluoro-6-[(15)-2,2,2-trifluoro-1-methyl-ethoxy]-3-pyridyl]triazolo[1,5-a]pyridine], the inhibition at 1 µM is more than 70%.

For the molecule `Cc1nnn2ccc(-c3cnc(OC(C)(C)C(F)(F)F)c(F)c3)cc12` [Compound 25], the inhibition at 1 µM is more than 70%.

As for `C[C@@H](Oc1ncc(-c2ccn3nnc(C(F)(F)F)c3c2)cc1F)C(F)(F)F` [Compound 30], the inhibition at 1 µM was more than 70%.

As for `Cc1nnn2ccc(-c3ccc(C4(C#N)CC4)cc3)cc12` [Compound 6], the inhibition at 1 µM was in the range of 30 to 70%.

Take `FC(F)(F)COc1ccc(-c2ccn3nncc3c2)cn1` [Compound 15]: the inhibition at 1 µM is more than 70%.

Consider `[2H]c1nnn2ccc(-c3cnc(O[C@H](C)C(F)(F)F)c(F)c3)cc12` [Compound 32], for which the inhibition at 1 µM was more than 70%.

With `Cc1cc(OC(F)(F)F)ccc1-c1ccn2nnc(C(F)(F)F)c2c1` [Compound 4], the inhibition at 1 µM was more than 70%.

Consider `[2H]c1nnn2ccc(-c3cnc(OC4(C(F)(F)F)CCC4)c(F)c3)cc12` [Compound 36], for which the inhibition at 1 µM was more than 70%.

Take `Fc1cc(-c2ccn3nncc3c2)cnc1OCC(F)(F)F` [Compound 10]: the inhibition at 1 µM lay within 30 to 70%.

As for `COCc1cc(-c2ccn3nncc3c2)ccc1OC(F)(F)F` [Compound 16], the inhibition at 1 µM was 30 to 70%.

`[2H]c1nnn2ccc(-c3cnc(OC(C)(C)C(F)(F)F)c(F)c3)cc12` [Compound 35]: the inhibition at 1 µM was more than 70%.

Regarding `C[C@@H](Oc1ncc(-c2ccn3nncc3c2)cc1F)C(F)(F)F` [Compound 17, 5-[5-fluoro-6-[(1R)-2,2,2-trifluoro-1-methyl-ethoxy]-3-pyridyl]triazolo[1,5-a]pyridine], the inhibition at 1 µM was more than 70%.

As for `FC1(F)C[C@H]1c1ccc(-c2ccn3nncc3c2)cc1` (single isomer, unassigned) [Compound 23-2], the inhibition at 1 µM was more than 70%.

As for `Cc1cc(OC(F)(F)F)ccc1-c1ccn2nncc2c1` [Compound 1, 5-[2-methyl-4-(trifluoromethoxy)phenyl]triazolo[1,5-a]pyridine], the inhibition at 1 µM lay in the range of 30 to 70%.

Take `COCc1nnn2ccc(-c3ccc(OC(F)(F)F)cc3C)cc12` [Compound 13]: the inhibition at 1 µM was more than 70%.

In the case of `C[C@H](Oc1ncc(-c2ccn3nnc(C(F)(F)F)c3c2)cc1F)C(F)(F)F` [Compound 31], the inhibition at 1 µM is more than 70%.

On to `CC(C)(Oc1ncc(-c2ccn3nncc3c2)cc1F)C(F)(F)F` [Compound 24], for which the inhibition at 1 µM is more than 70%.

Turning to `Cc1cc(-c2cnc(OCC(F)(F)F)c(F)c2)cc2cnnn12` [Compound 46], the inhibition at 1 µM lay in the range of 30 to 70%.

As to `COCc1nnn2ccc(-c3cnc(OCC(F)(F)F)c(F)c3)cc12` [Compound 20], the inhibition at 1 µM lay in the range of 30 to 70%.

Consider `[2H]c1nnn2ccc(-c3cnc(OCC(F)(F)F)c(F)c3)cc12` [Compound 34], for which the inhibition at 1 µM was more than 70%.

Turning to `Fc1cc(-c2ccn3nncc3c2)cnc1OC1CC(F)(F)C1` [Compound 11], the inhibition at 1 µM was more than 70%.

Consider `Cc1cc(OC(F)(F)F)ccc1-c1ccn2nnc(C)c2c1` [Compound 3], for which the inhibition at 1 µM is more than 70%.

For `Cc1nnn2ccc(-c3cnc(OC4CC(F)(F)C4)c(F)c3)cc12` [Compound 12], the inhibition at 1 µM is more than 70%.

For the molecule `COCc1nnn2ccc(-c3cnc(OC(C)(C)C(F)(F)F)c(F)c3)cc12` [Compound 26], the inhibition at 1 µM was more than 70%.

Consider `FC1(F)C[C@@H]1c1ccc(-c2ccn3nncc3c2)cc1` (single isomer, unassigned) [Compound 23-1], for which the inhibition at 1 µM was 30 to 70%.

Regarding `[2H]C([2H])([2H])c1nnn2ccc(-c3cnc(OC(C)(C)C(F)(F)F)c(F)c3)cc12` [Compound 42], the inhibition at 1 µM was more than 70%.

For the molecule `[2H]C([2H])(OC)c1nnn2ccc(-c3cnc(OC(C)(C)C(F)(F)F)c(F)c3)cc12` [Compound 41], the inhibition at 1 µM was more than 70%.

As for `Cc1cc(-c2cnc(O[C@@H](C)C(F)(F)F)c(F)c2)cc2cnnn12` [Compound 45], the inhibition at 1 µM was more than 70%.

On to `[2H]c1nnn2ccc(-c3cnc(O[C@@H](C)C(F)(F)F)c(F)c3)cc12` [Compound 33], for which the inhibition at 1 µM was more than 70%.

Usually inhibition stands for the drop in the measured response relative to a control, in per cent.
